Measured values reported in US10597387B2, “Methods to treat lymphoplasmacytic lymphoma” (Dana-Farber Cancer Institute, Inc., priority 2013, dated 2020).
Values belong to the molecule of their own block, whether it stands above or below them.

What was measured:
BTK = BTK (Homo sapiens (Human), UniProt Q06187); assay: Invitrogen Select Screening kinase assay; type: biochemical; conditions: in vitro
Description: The in vitro activity of the compounds described herein in inhibiting TAK1, HCK, and other kinases were obtained using an Invitrogen Select Screening assay as known in the art. The IC50 values determined from this assay are shown below.

HCK = HCK (Homo sapiens (Human), UniProt P08631); assay: Invitrogen Select Screening kinase assay; type: biochemical; conditions: in vitro, read-out: HCK IC50 (nM) Inv
RPCIWM-1 = assay: CellTiter-Glo cell viability assay; type: cell-based; conditions: 72 hours
Method: (§1) CellTiter-Glo® Luminescent cell viability assay (Promega) was used to assess cell survival following treatment with the compounds described. Cells were seeded into 384 well plates with the EL406 Combination Washer Dispenser (BioTek Instruments, Inc.), and the compounds were injected into the cells culture media with the JANUS Automated Workstation (PerkinElmer Inc.). Cells were treated with a series diluted inhibitors (20˜0.04 μM) for 72 hours at 37° C. Luminescent measurement is performed using the 2104 Envision® Multilabel Reader (PerkinElmer Inc.).

BCWM.1 = assay: CellTiter-Glo cell viability assay; type: cell-based
Method: as §1

OCI-Ly19 = assay: CellTiter-Glo cell viability assay; type: cell-based; conditions: Homo sapiens, 72 hours
Method: as §1

MWCL-1 = assay: CellTiter-Glo cell viability assay; type: cell-based
Method: as §1

OCI-Ly3 = assay: CellTiter-Glo cell viability assay; type: cell-based
Method: as §1

Ramos = assay: CellTiter-Glo cell viability assay; type: cell-based; conditions: 72 hours
Method: as §1

BTK, sequence (Q06187 whole entry): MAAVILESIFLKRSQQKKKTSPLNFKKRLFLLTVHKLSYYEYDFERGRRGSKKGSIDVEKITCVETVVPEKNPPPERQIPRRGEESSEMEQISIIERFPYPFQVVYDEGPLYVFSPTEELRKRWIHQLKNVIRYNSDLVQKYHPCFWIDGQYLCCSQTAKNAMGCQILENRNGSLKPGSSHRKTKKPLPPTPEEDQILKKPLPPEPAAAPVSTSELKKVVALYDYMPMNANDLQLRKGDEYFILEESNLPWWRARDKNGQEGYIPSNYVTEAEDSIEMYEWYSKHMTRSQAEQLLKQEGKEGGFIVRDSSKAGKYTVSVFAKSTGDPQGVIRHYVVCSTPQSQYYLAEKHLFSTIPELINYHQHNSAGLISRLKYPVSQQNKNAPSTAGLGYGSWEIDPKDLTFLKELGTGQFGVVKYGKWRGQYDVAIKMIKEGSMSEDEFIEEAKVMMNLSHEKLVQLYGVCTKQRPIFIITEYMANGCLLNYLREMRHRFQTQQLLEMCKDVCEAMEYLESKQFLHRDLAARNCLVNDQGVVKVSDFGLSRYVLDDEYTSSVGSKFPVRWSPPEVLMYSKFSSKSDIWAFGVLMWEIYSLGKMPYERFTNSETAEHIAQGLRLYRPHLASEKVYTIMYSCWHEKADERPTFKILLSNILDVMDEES
HCK, sequence (P08631 whole entry): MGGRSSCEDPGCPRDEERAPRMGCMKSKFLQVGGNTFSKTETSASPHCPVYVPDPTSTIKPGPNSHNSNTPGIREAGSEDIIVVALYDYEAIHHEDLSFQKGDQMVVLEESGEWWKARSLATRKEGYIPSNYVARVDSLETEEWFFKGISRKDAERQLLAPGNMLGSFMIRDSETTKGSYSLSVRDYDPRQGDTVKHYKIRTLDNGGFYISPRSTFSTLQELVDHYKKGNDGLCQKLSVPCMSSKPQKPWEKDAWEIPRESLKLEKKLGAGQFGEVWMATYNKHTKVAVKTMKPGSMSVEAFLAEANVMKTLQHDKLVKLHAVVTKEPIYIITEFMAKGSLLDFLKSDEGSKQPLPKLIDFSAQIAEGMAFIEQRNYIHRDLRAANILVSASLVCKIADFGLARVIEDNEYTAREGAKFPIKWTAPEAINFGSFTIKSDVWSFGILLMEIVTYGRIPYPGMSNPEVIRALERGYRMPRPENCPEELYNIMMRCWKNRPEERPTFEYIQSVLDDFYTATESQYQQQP

Molecule: Cc1ccc(C(=O)Nc2cc(N3CCN(C)CC3)cc(C(F)(F)F)c2)cc1NC(=O)c1cncc(-c2cccs2)c1 [I-4, N-(2-methyl-5-((3-(4-methylpiperazin-1-yl)-5-(trifluoromethyl)phenyl)carbamoyl)phenyl)-5-(thiophen-2-yl)nicotinamide]
- IC50 (BTK): 459 nM

Molecule: CCN1CCN(Cc2ccc(NC(=O)c3ccc(C)c(NC(=O)c4cncc(-c5cnn(C)c5)c4)c3)cc2C(F)(F)F)CC1 [I-9]
- IC50 (HCK): 2.43 nM
- IC50 (BTK): 25.3 nM

Molecule: CCN1CCN(c2ccc(NC(=O)c3ccc(C)c(NC(=O)c4cncc(-c5cccs5)c4)c3)cc2C(F)(F)F)CC1 [I-5, N-(5-((4-(4-ethylpiperazin-1-yl)-3-(trifluoromethyl)phenyl)carbamoyl)-2-methylphenyl)-5-(thiophen-2-yl)nicotinamide]
- IC50 (BTK): 3910 nM
- EC50 (RPCIWM-1): 0.02 nM
- EC50 (BCWM.1; BCWM1, 72 h): 365 nM
- EC50 (OCI-Ly19): 1560 nM
- EC50 (MWCL-1; 72 h): 1090 nM
- EC50 (OCI-Ly3; Homo sapiens, OCI-Ly3, 72 h): 2160 nM
- EC50 (Ramos; Homo sapiens, Ramos): 989 nM

Molecule: Cc1ccc(C(=O)Nc2cc(N3CCOCC3)cc(N3CCOCC3)c2)cc1NC(=O)c1cncc(-c2cccs2)c1 [I-7, N-(5-((3,5-dimorpholinophenyl)carbamoyl)-2-methylphenyl)-5-(thiophen-2-yl)nicotinamide]
- IC50 (BTK): 3420 nM
- EC50 (RPCIWM-1): 4800 nM
- EC50 (BCWM.1; BCWM1, 72 h): 180 nM
- EC50 (OCI-Ly19): 2970 nM
- EC50 (MWCL-1; 72 h): 1760 nM
- EC50 (OCI-Ly3; Homo sapiens, OCI-Ly3, 72 h): 3540 nM
- EC50 (Ramos; Homo sapiens, Ramos): 2380 nM

Molecule: Cc1cn(-c2cc(NC(=O)c3ccc(C)c(NC(=O)c4cncc(-c5cccs5)c4)c3)cc(C(F)(F)F)c2)cn1 [I-3, N-(2-methyl-5-((3-(4-methyl-1H-imidazol-1-yl)-5-(trifluoromethyl)phenyl)carbamoyl)phenyl)-5-(thiophen-2-yl)nicotinamide]
- IC50 (BTK): 196 nM
- EC50 (RPCIWM-1): 725 nM
- EC50 (BCWM.1; BCWM1, 72 h): 141 nM
- EC50 (OCI-Ly19): 508 nM
- EC50 (MWCL-1; 72 h): 355 nM
- EC50 (OCI-Ly3; Homo sapiens, OCI-Ly3, 72 h): 411 nM
- EC50 (Ramos; Homo sapiens, Ramos): 555 nM

- EC50 (OCI-Ly3; 72 hours): 161 nM
- EC50 (Ramos): 60 nM
Molecule: N-(2-chloro-5-((4-((4- ethylpiperazin-1-yl)methyl)- 3-(trifluoromethyl)phenyl) carbamoyl)phenyl)-5- (thiophen-2-yl)nicotinamide [I-2]
- EC50 (RPCIWM-1): 110 nM
- EC50 (BCWM.1; 72 hours): 12 nM
- EC50 (MWCL-1; 72 hours): 16 nM

Molecule: CCN1CCN(Cc2ccc(NC(=O)c3ccc(C)c(NC(=O)c4cncc(-c5cnoc5)c4)c3)cc2C(F)(F)F)CC1 [I-8]
- IC50 (HCK): 5.33 nM
- IC50 (BTK): 69.7 nM

Molecule: CCN1CCN(Cc2ccc(C(=O)Nc3ccc(C)c(NC(=O)c4cncc(-c5cccs5)c4)c3)cc2C(F)(F)F)CC1 [I-1, N-(5-(4-((4-ethylpiperazin-1-yl)methyl)-3-(trifluoromethyl)benzamido)-2-methylphenyl)-5-(thiophen-2-yl)nicotinamide]
- IC50 (BTK): 22.9 nM
- EC50 (BCWM.1; BCWM1, 72 h): 38 nM
- EC50 (OCI-Ly19): 552 nM
- EC50 (MWCL-1; 72 h): 459 nM
- EC50 (OCI-Ly3; Homo sapiens, OCI-Ly3, 72 h): 2900 nM
- EC50 (Ramos; Homo sapiens, Ramos): 4150 nM
